# What was measured:
# [1] = system: HSB2 cells; test: Apoptosis, Annexin V / propidium iodide FACS; type: cell-based
# Procedure: To confirm that the ability of NAC to block Compound 1-induced cell death was not cell-line specific, we examined the role of oxidative stress in two additional cell lines by FAC analysis. RAMOS and HSB2 cells (ATCC) were seeded in 6-well plates at 1×10^6 cells/well/4 mL and incubated at 37° C. for 4 hours. […] After incubation the cells were stained with Annexin V and propidium iodide (Vybrant Apoptosis assay kit, Cat# V13241, Invitrogen, Molecular Probes) for measuring apoptotic cells by FACS analysis.
# The cells were harvested and stained with Annexin V and propidium iodide for measuring apoptotic cells by FACS analysis.
# [2] = system: Hsp70; test: Cell surface expression of Hsp70, CEM cells (immunofluorescence); type: cell-based; settings: 3 hrs
# Procedure: After treatment, cells were rinsed one time in PBS then fixed in 2% Paraformaldehyde at room temperature for 20 minutes. Slides with the fixed cells were rinsed with PBS two times. Primary antibody mouse monoclonal anti-Hsp70 (Stressgen SPA-8 10) was diluted 1:100 in PBS and the slides were incubated 1 hour at 37° C. The slides were rinsed two times with PBS. Secondary antibody anti-mouse AlexaFluor 488 (Molecular Probes A-11001) was diluted 1:500 in PBS and the slides were incubated 30 min at 37° C. The slides were rinsed two times in PBS. DAPI (Molecular Probes D-3571) were diluted 1:10,000 in PBS and the slides were incubated at room temperature in dark for 5 min. The slides were rinsed two times in PBS, then once in deionized water and left to dry in dark until almost completely dry. Coverslips were mounted with Prolong Anti-fade Mounting Media (Molecular Probes P-748 1). The images were captured with a monochrome CCD camera SenSys (see FIGS. 27A-D and 28A-D) or by confocal microscopy (see FIG. 29A-E). In FIGS. 27A-D and 28A-D, the bright pink color on the surface of the MCF-7 cells (FIG. 27A-D) or CEM cells (FIG. 28A-D) indicates Hsp70 on the surface of the cells. In FIG. 29A-E the bright green color on the surface of the cell indicates Hsp70 on the surface of the HT29 cells.
# [3] = system: Hsp70; test: Hsp70 secretion by cultured tumor cells (ELISA); type: cell-based, human; settings: MDA-MB-435, 0.04 μM or 0.2 μM, 72 h
# Procedure: MDA-MB-435 tumor cells were seeded at 15,000 cells/150 μl/well of 48-well plate and cultured in DMEM supplemented with 10% fetal bovine serum. The compounds were dissolved in dimethyl sulfoxide (DMSO) then a solution was prepared containing 0.04 μM or a 0.2 μM in 25% DMSO and 75% culture medium. […] The medium was then separated from the cells and Hsp70 was measured by ELISA kit from Stressgen. Cell viability was checked by CCK-8 cell count assay (Dojindo) at 88 hr.
# [4] = system: Hsp70; test: Phase I trial: plasma Hsp70 (sandwich ELISA); type: in vivo, human; settings: co-administered with paclitaxel
# Procedure: Plasma Hsp70 was measured by a sandwich ELISA kit (Stressgen Bioreagents Victoria, British Columbia, CANADA) according to a modified protocol in house. In brief, Hsp70 in plasma specimens and serial concentrations of Hsp70 standard were captured onto 96-well plate on which anti-Hsp70 antibody was coated. Then captured Hsp70 was detected with a biotinylated anti-Hsp70 antibody followed by incubation with europium-conjugated streptavidin. After each incubation, unbound materials were removed by washing. Finally, antibody-Hsp70 complex was measured by time resolved fluorometry of europium. Concentration of Hsp70 was calculated from a standard curve.
# [5] = system: human breast tumor MDA-MB-435; settings: Paclitaxel 5 mg/kg + Compound 1 25 or 50 mg/kg, IV, 3 times a week for 3 weeks, nude mice
# Procedure: The in vivo anti-cancer enhancing effect of novel compounds was assessed in tumor bearing mice using the tumor growth inhibition assay. Tumor cells were implanted by injection of a tumor cell suspension subcutaneously in the flank of a mouse. […] Tumors were measured two times a week. During the course of this assay, animals were monitored daily for signs of toxicity including body weight loss.
# [6] = system: MAPKAPK-2; test: MAPKAPK-2 phosphorylation, Western blot, CEM and CV-1 cells; type: cell-based; settings: CEM and CV-1 tumor cells, 0.1 or 0.5 μM
# Procedure: After treatment the cells were lysized and used for Western blot analysis.
# Samples were run on a SDS-PAGE gel and proteins were transferred onto a nitrocellulose membrane by a semi-dry transfer. Nitrocellulose was blocked with 5% skim milk in TBS with 0.5% Tween at room temperature for 1 hour and then probed with anti-p-MAPKAPK-2 (Thr334) (#3041, Cell Signaling) antibody. Tubulin was used as a normalization control and was probed with Anti-Tubulin (T9026, Sigma) antibody.
# [7] = system: Hsp70; test: Hsp70 RNA induction, quantitative PCR, Hs294T cells; type: cell-based, human; settings: 100 nM
# Procedure: […] 500 ng of RNA from each sample was used for cDNA synthesis using iScript cDNA Synthesis Kit (Biorad, Cat# 170-8891). 1 uL of cDNA mixture was used with the iQ SYBR Green Supermix (Biorad, Cat# 170-8882) to perform quantitative PCR in an iCycler machine (Biorad) using standard protocols. QPCR for each sample/time point was performed in duplicate. The following primers for inducible human Hsp70 and gapdh were used:
# Ct values were obtained from the iCycler program and used in an equation (2^−ΔΔCT) for determining the amount of target relative to gapdh expression. This compares the relative expression of Hsp70 to the corresponding levels of gapdh in each sample. Duplicate wells were averaged and graphed with their corresponding standard deviation.
# Activation of HSF-1 by oxidative stress has been reported in the literature to require p38 kinase signaling in some cell lines.
# [8] = Compound 1 0.2 μM plus NAC 5 mM, 20 hours
# [9] = Compound 1 0.2 μM, 20 hours (FIG. 39D)
smiles,measurement,setting,value
CN(NC(=O)CC(=O)NN(C)C(=S)c1ccccc1)C(=S)c1ccccc1 [Compound 1],early apoptotic cells,"[1]; 200 nM Compound 1, 24 hours (DMSO 12%)",45%
same,cells in early stages of apoptosis,[1]; [8],2.9%
same,cells in late stages of apoptosis,[1]; [8],3.8%
same,early apoptotic cells,"[1]; Compound 1 0.2 μM plus NAC 5 mM, 24 hours",6%
same,cells in early stages of apoptosis,[1]; [9],26.6%
same,cells in late stage apoptosis,[1]; [9],41.5%
same,Hsp70 on the surface of cells,[2]; 0.05 μM,bright pink fluorescent color on the surface of the cells indicating Hsp70
same,Hsp70 on the surface of cells,[2]; 0.1 μM,brighter than when cells were treated with 0.05 μM of Compound 1
same,Hsp70 on the surface of cells,[2]; 0.5 μM,brighter than when cells were treated with 0.05 μM of Compound 1 but about the same as cells treated with 0.1 KIM
same,secretion of Hsp70,[3],increased the secretion of Hsp70 by the cells in a dose dependent manner
same,induction of Hsp70 protein in plasma,[4],dose dependent
same,anti-tumor activity (tumor volume),[5],significantly enhanced anti-tumor activity of paclitaxel
same,phosphorylation of MAPKAPK-2,[6],induces the phosphorylation of MAPKAPK-2
same,Hsp70 RNA expression induction,[7]; 3 hours,3.9 fold
same,Hsp70 RNA expression induction,[7]; 6 hours,8.3 fold
